Experimental data from PubChem BioAssay (NCI).
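Values below derive from 48-hour exposures of cells grown in 96-well plates, with endpoints linearly interpolated between the two concentrations bracketing the appropriate inhibition level. The concentration for full growth arrest is given as TGI.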 Where a SMILES comes first, the peptide text is derived from it. The star is where a group is joined. Cbz = O=C(OCc1ccccc1)*; NHNH2 = NN*

Columns and labels:
Assay in all cases: NCI anticancer screen, dose series, 48 h
NCI/ADR-RES ovarian = test system: NCI/ADR-RES ovarian
COLO 205 colon = test system: COLO 205 colon
OVCAR-5 ovarian = test system: OVCAR-5 ovarian
PC-3 prostate = test system: PC-3 prostate
U251 CNS = test system: U251 CNS
SN12C renal = test system: SN12C renal
SF-295 CNS = test system: SF-295 CNS
MOLT-4 leukemia = test system: MOLT-4 leukemia
MCF7 breast = test system: MCF7 breast
BT-549 breast = test system: BT-549 breast

Compound | TGI (NCI/ADR-RES ovarian) [µM] | TGI (COLO 205 colon) [µM] | TGI (OVCAR-5 ovarian) [µM] | TGI (PC-3 prostate) [µM] | TGI (U251 CNS) [µM] | TGI (SN12C renal) [µM] | TGI (SF-295 CNS) [µM] | TGI (MOLT-4 leukemia) [µM] | TGI (MCF7 breast) [µM] | TGI (BT-549 breast) [µM]
NC1CNC(=O)c2c(Cl)sc(Cl)c21 (centres undefined) | > 100 | > 100 | > 100 | > 100 | > 100 | > 100 | > 100 | > 100 | > 100 | 
CC(C)(C)C1CCC2(CC1)c1[nH]c3ccccc3c1C1(CCC(C(C)(C)C)CC1)c1[nH]c3ccccc3c12 (centres undefined) |  | > 100 | > 100 |  | > 100 | > 100 | > 100 | > 100 |  | 
CCOn1c(C2(CC3CCN(C(=O)c4ccccc4)CC3)OCCO2)cc2ccccc21 | 33.9 | 36.3 | 37.4 | 26 | 29.9 | 30.9 | 30.5 | 31.3 | 30 | 34.5
CC(=O)OC/C=C(/C=C/CNC1CCCCC1)OC(C)=O | 44.6 | 28.2 | 29.9 | 31.1 | 32.9 | 32.1 | 33.2 | > 100 | 66.9 | 31.3
O=C(N/N=C/c1ccco1)c1cc(I)cc(I)c1O | > 50 | 45.6 | 40.9 | > 50 |  | 38.7 |  | > 50 | > 50 | > 50
COc1c(Br)cc(CC(N)=O)c(O)c1Br |  | > 100 | > 100 |  | > 100 | > 100 | > 100 | > 100 |  | 
O=C(CSc1n[nH]c(=O)[nH]c1=O)NNC(=O)c1cccc2nc3ccccc3nc12 | > 100 | > 100 | > 100 | > 100 | > 100 | > 100 | > 100 | > 100 | > 100 | 83.7
O=[N+]([O-])c1ccc(NC(=S)N=Nc2c(O)[nH]c3ccc(Br)cc23)cc1 | 6.13 | 56.5 | 28.3 | 20.7 | 21.9 | 23.8 | 22 | > 100 | 22 | 11.1
Nc1ccc(S(=O)(=O)Nc2nc3ccccc3nc2N2CCCCC2)cc1 | > 100 | > 100 | > 100 | > 100 | > 100 | > 100 | > 100 | > 100 | > 100 | > 100
CNC(=O)N(CCC#N)[C@H]1CCCC[C@@H]1N(C(=O)NC)c1ccccc1 | > 100 | > 100 | > 100 | > 100 | > 100 | > 100 | > 100 | > 100 | > 100 | > 100
COc1c(C)c2nc3ccccc3[nH]c2c2c(=O)ccnc12 | > 100 | > 100 | > 100 | > 100 | > 100 | > 100 | > 100 | > 100 | > 100 | 
Nc1ccc2[nH]c(-c3cccc(Cl)c3)cc(=O)c2c1 | 12.4 | > 100 | > 100 | > 100 | 70.4 | > 100 |  | > 100 | > 100 | > 100
COc1ccc2c(c1)CN1C(=N2)CSC1c1ccccc1Cl (centres undefined) | 53.8 | 28.3 | 46.8 | 70.5 | 59.6 | 40.1 | 75.6 | 19 | > 100 | 80.3
CCOc1cc(-c2nc3ccccn3c2/N=C/c2cc(Br)ccc2O)ccc1O | 93 | > 100 | > 100 | 73.3 | 40.2 | > 100 | > 100 | > 100 | 43.6 | > 100
N#Cc1cc2c(cc1Cl)Sc1nccn1S2(=O)=O | 3.9 | 31.5 | 27.4 | 8.93 | 3.21 | 20.8 | 12.2 | 2.54 | > 23.4 | 13
CC1(CNCc2ccccc2)CC(CCc2ccccc2)N(C(=O)c2ccc([N+](=O)[O-])cc2)C1Cc1ccc(O)cc1 (centres undefined) | 36 | 19.4 | 34 | 26.3 | 26.2 | 20.8 | 25.6 | > 100 | 19.2 | 31.3
O=C(Cc1ccc([N+](=O)[O-])cc1)OCC#CCOC(=O)Cc1ccc([N+](=O)[O-])cc1 | > 10 |  | > 10 | > 10 | > 10 | > 10 | > 10 | > 10 | > 10 | > 10
Cn1c2ccccc2n2c(=O)c3cc([N+](=O)[O-])ccc3c(C#N)c12 | > 100 | > 100 | > 100 | > 100 | > 100 |  | > 100 | > 100 | > 100 | > 100
Cc1cc2[nH]c3c(C#N)c4c(c(=O)n3c2cc1C)CCCC4 | > 100 | > 100 | 32.7 | > 100 | > 100 | > 100 | 29.5 | > 100 | > 100 | > 100
CCOC(=O)C(CC#Cc1ccc(C#CCC(NC(C)=O)C(=O)OCC)cc1)NC(C)=O (centres undefined) | > 100 | > 100 | > 100 | > 100 |  | > 100 | > 100 | > 100 | > 100 | 
O=C1CSC(c2cccs2)N1c1nc2cc3sc(N4C(=O)CSC4c4cccs4)nc3cc2s1 (centres undefined) | > 50 | 3.18 | > 50 | > 50 | > 50 | > 50 | > 50 | > 50 | > 50 | > 50
Cc1cn(C(C)OCCN2C(=O)c3ccccc3C2=O)c(=O)[nH]c1=O (centres undefined) | > 100 | > 100 | > 100 | > 100 | > 100 | > 100 | > 100 | > 100 | > 100 | > 100
CCOC(=O)C1=C(OC(OCC)C(CC)[Se]c2ccccc2)CCCC1 (centres undefined) |  | > 100 | 67.7 |  | 31 | 34.1 | 55.6 | 52.1 |  | 
O=C1C=C(c2ccccc2)O/C1=C/C(=O)c1ccc(Cl)cc1 | 50 | 30.1 | 43.3 | 27.3 | 29.1 | 29.9 |  | > 100 | 30.1 | 30.1

Compound | TGI (NCI/ADR-RES ovarian) [µM] | TGI (COLO 205 colon) [µM] | TGI (OVCAR-5 ovarian) [µM] | TGI (PC-3 prostate) [µM] | TGI (U251 CNS) [µM] | TGI (SN12C renal) [µM] | TGI (SF-295 CNS) [µM] | TGI (MOLT-4 leukemia) [µM] | TGI (MCF7 breast) [µM] | TGI (BT-549 breast) [µM]
CN(C)CCn1c(=O)c2ccc(NCCCN(C)CCCNc3ccc4c(=O)n(CCN(C)C)c(=O)n5c6ccc([N+](=O)[O-])cc6c(=O)c3c45)c3c(=O)c4cc([N+](=O)[O-])ccc4n(c1=O)c23 |  | 0.204 | 1.1 | 0.293 | 0.124 | 0.165 | 0.594 |  | 0.608 | 0.176
Cc1cn([C@@H]2C[C@H]2CO)c(=O)[nH]c1=O | > 100 | > 100 | > 100 | > 100 | > 100 | > 100 |  | > 100 | > 100 | > 100
c1ccc(/C(=N/Nc2ccccn2)c2ncccn2)cc1 | 4.67 | > 71.2 | > 100 | > 100 | > 51.6 | > 100 | > 44.6 |  | > 100 | > 100
COC1(OC)CCCCC2c3cccc(OC(C)=O)c3C21OC(C)=O (centres undefined) |  | > 100 | > 100 |  |  | > 100 | > 100 | > 100 |  | 
COC(=O)Cc1c([C@H]2[C@H](CC(=O)OC)c3ccccc3N2C(C)=O)[nH]c2ccccc12 | > 100 | > 100 | > 100 | > 100 | > 100 | > 100 | > 100 | > 100 |  | > 100
COCC1OC(N2C(=O)NC(=O)[C@@H]3C=C4CCCCC4=C[C@@H]32)C(OC)C1OC (some centres undefined) | > 100 |  | > 100 | > 100 | > 100 | > 100 | > 100 | > 100 | > 100 | > 100
CCCCc1ccc(Nc2nc3c(ncn3COCCO)c(=O)[nH]2)cc1 | > 100 | > 100 | > 100 |  | > 100 | > 100 | > 100 | > 100 | > 100 | > 100
FC(F)(F)c1ccc2nc3n(c2c1)C(c1c(Cl)cccc1Cl)SC3 (centres undefined) | 25.7 |  | 30.4 | 31.5 | 32.6 | 32.7 | 30.3 | > 100 | 37.9 | 50.3
CCC(=O)Oc1c2ccsc2c(OC(=O)CC)c2ccsc12 | 0.832 | 10.6 | 3.35 |  | 1.65 | 1.16 | 0.675 | > 100 | 3.43 | 0.361
Cc1cc2ncc3c(=O)n(NS(=O)(=O)c4ccc(N)cc4)ccc3n2n1 |  | > 100 | > 100 | > 100 | > 100 | > 100 | > 100 | > 100 | > 100 | > 100
OC1(c2ccc(Cl)cc2)c2ccc3ccccc3c2C2=N[C@H]3CCCC[C@@H]3N21 (some centres undefined) | 5.99 | > 100 | 57.2 | 51.2 | 27.9 | > 100 | 18.1 | > 100 | > 100 | 
O=C1NC2OC(CO)C(O)C(O1)C2O (centres undefined) |  | > 100 | > 100 |  | > 100 | > 100 | > 100 | > 100 |  | 
NC(=O)c1cc2ccccc2o/c1=N/O | > 100 | > 100 |  | > 100 | > 100 | > 100 | > 100 | > 100 | > 100 | > 100
COC(=O)C1CC2(c3ccccc3)C(=O)c3ccccc3N2O1 (centres undefined) |  | > 100 | > 100 |  | > 100 | > 100 | > 100 | 75.8 |  | 
COc1ccc2c(c1)CC1=C(O2)c2ccc(OC)cc2OC1 | > 100 | 33.8 | > 100 | 57 | 39.9 | 44.3 | > 100 | > 100 |  | 38.8
O=C(O)C(CO)NC(=O)n1c2ccccc2c2ccccc21 (centres undefined) |  | > 100 |  |  |  | > 100 | > 100 | > 100 |  | 
Cc1c2ncccc2cc2oc3ccccc3c(=O)c12 | > 100 | > 100 | 59.7 | > 100 |  | > 100 | > 100 | 23.5 | > 100 | > 100
O=C(Nc1cccc(O)c1)C(=O)C(C(=O)c1ccccc1F)C1OC(=O)c2ccccc21 (centres undefined) |  | 48.3 | > 100 |  | 26.9 | > 100 | > 100 | > 100 |  | 
C=CCOCCCCC(C(C)=O)C(=O)OC (centres undefined) |  | > 100 | > 100 |  | > 100 | > 100 | > 100 | > 100 |  | 
COC(=O)CC(NC(=O)OCc1ccccc1)C(=O)NC(CC(=O)OC)C(=O)NC(CC(=O)OC)C(=O)NC(CC(=O)OC)C(=O)NC(CC(=O)OC)C(=O)NC(CC(=O)OC)C(=O)NN (centres undefined) (Cbz-D(OMe)D(OMe)D(OMe)D(OMe)D(OMe)D(OMe)-NHNH2; configuration not given here) |  | > 100 | > 100 | > 100 | > 100 | > 100 | > 100 | > 100 | > 100 | > 100
Cn1c([O-])nc(-n2cc[n+](C)c2)cc1=O | > 100 | > 100 | > 100 | > 100 | > 100 | > 100 |  | > 100 | > 100 | > 100
O=C(CC1=NCCN1)c1ccccc1 | > 750 | > 750 | > 750 |  | > 750 | > 750 | > 750 | > 750 | > 750 | 
COc1ccc(Nc2nc3c([nH]2)c(=O)n(C)c(=O)n3C)cc1 |  | > 10 |  | > 10 |  | > 10 | > 10 | > 10 | > 10 | 
